Reference: patent US20090176817A1, “Method of Treatment of Diarrhea-Predominant Irritable Bowel Syndrome in a Subject” (priority 2005, published 2009)
Like-named read-outs stand apart in the source and are kept apart here. Marks after values point to notes of the source that are not given here.

Tests used:
clinical = conditions: male, human, in vivo; for CL renal: CLr; for half-life: T½
Procedure: Subjects were randomized to receive cilansetron 8 mg IV solution (30-minute infusion), cilansetron 8 mg oral solution, and a cilansetron 8 mg capsule during the three treatment periods, with a 23-day washout between periods. All doses were administered under fasted conditions. […] Table 2.7.1.2.3 presents descriptive statistics for the pharmacokinetic parameters of cilansetron capsule and oral solution, and the results of statistical comparisons between treatments (capsule versus solution). […] Median Tmax was also similar between the capsule and oral solution.
Subjects were randomized to receive cilansetron 8 mg IV solution (30-minute infusion), cilansetron 8 mg oral solution, and a cilansetron 8 mg capsule during the three treatment periods, with a 23-day washout between periods. All doses were administered under fasted conditions. […] Its low bioavailability, complete absorption from the GI tract, and its 4.5- to 5-fold higher apparent oral clearance in comparison to systemic clearance indicate that cilansetron is a high extraction drug and undergoes significant first pass metabolism on oral administration. Intersubject % CVs were higher for oral (47-73%) than for IV administration (19-20%), reflecting increased variability due to oral absorption. Intrasubject % CVs ranged from 37-47% following oral and IV administration.
Cilansetron concentrations in this study were also modeled using a standard 2-compartment model for the IV data and a 1-compartment model for the oral data (using TOPFIT 2.0). The results from modeling are compared to the results obtained from non-compartmental analysis in Table 2.7.2.3.10 below, for the oral and IV solution. The results obtained by the two methods are very similar.

healthy subjects = test: Study K.241.5012: colonic transit time, healthy young subjects; assay type: in vivo, human; conditions: mean (SD); for Transit Times, Colon Total: null hypothesis not rejected vs placebo
From the text: (§1) The effect of cilansetron on gastric emptying time and colonic transit time has been studied in 1 clinical study in healthy young subjects and 2 studies in elderly subjects. For measurement of gastric emptying time, breath samples for the determination of the ^12C/^13C ratio were taken on the last day of each treatment period immediately after ingestion of a ^13C labeled meal. The patients' breath was collected in separate 15-minute intervals, for four hours in total. ^13CO2 measurements were performed with an isotope ratio mass spectrometer. The half-life (TK) and lag-time (Tlag), which describe the duration of gastric emptying, were used as the primary parameters to evaluate gastric emptying time. In all 3 studies, colonic transit time was measured by administration of radio-opaque markers for the last six days of each treatment period, followed by a single abdominal X-ray image at 24 hours after ingestion of the last set of markers. The numbers of markers within the colon were used to calculate segmental (right colon, left colon, and rectosigmoid) and total colonic transit time.
Study K.241.5013 was a randomized, double-blind, placebo-controlled, 3-way crossover study in 12 healthy male subjects (ITT population), aged 20-27 years. Subjects received cilansetron 4 mg, cilansetron 8 mg, or placebo orally TID for 14 days during each of the treatment periods, with a 14-day washout between periods. The primary efficacy parameter was the total mean colonic transit time during each treatment and the secondary parameters were the segmental colonic transit times and the gastric emptying measurements. A one-sided Dunnett t-test procedure was used to compare efficacy parameters between the cilansetron and placebo treatments.

[1] = test system: healthy, elderly subjects; test: Study K.241.5013: colonic transit time, elderly, 4 mg TID; assay type: in vivo, human; conditions: 4 mg TID oral 14 days, mean (SD)
From the text: as §1
Studies K.241.5013 and K.241.5014 were randomized, double-blind, placebo-controlled, 2-way crossover studies in 8 healthy male and female elderly subjects, each (ITT population, aged 64-83 years in K.241.5013 and 66-84 years in K.241.5014). Elderly subjects were selected for these studies because they commonly suffer from constipation and it was of interest whether cilansetron would prolong gastrointestinal transit times in this population. Subjects received cilansetron 4 mg or placebo in Study K.241.5013 and cilansetron 8 mg or placebo in Study K.241.5014. Treatments were administered orally TID for 14 days during each period, with a 14-day washout between periods. The primary efficacy parameter was the total mean colonic transit time during each treatment and the secondary parameters were the segmental colonic transit times and the gastric emptying measurements. One-sided t-tests were used to compare efficacy parameters between the cilansetron and placebo treatments.

[2] = human, in vivo
Procedure: Subjects were randomized to receive a cilansetron 8 mg capsule after an overnight fast and a cilansetron 8 mg capsule after a high-fat breakfast during the two treatment periods, with a 3-day washout between periods. Serial blood sampling and urine collection was performed up to 24 hours following each dose, and cilansetron pharmacokinetic parameters were evaluated.

Cc1nccn1C[C@H]1CCc2c(c3cccc4c3n2CCC4)C1=O [Cilansetron, (R)-(−)-4,5,6,8,9,10-hexahydro-10-[(2-methyl-1H-imidazol-1-yl)methyl]-11H-pyrido-[3,2,1-jk]-carbazol-11-one]
AUC(0-inf) ratio Oral Capsule/IV Soln (clinical): 25 (19, 32) % | AUC(0-inf) ratio Oral Soln/IV Soln (clinical): 26 (20, 34) % | AUC(0-last) ratio Oral Capsule/IV Soln (clinical): 23 (18, 31) % | AUC(0-last) ratio Oral Soln/IV Soln (clinical): 24 (18, 32) % | Intrasubject % CV (clinical): 37-47% | % Dose (urine) (clinical; iv): 0.41 (96) % | AUC(0-inf) (clinical; iv): 222 (42) ng · h/mL | CL (clinical; iv): 619 (108) mL/min | Intersubject % CV (clinical; iv): 19-20% | T½ (clinical; iv): 1.33 (0.32) h | Vss (clinical; iv): 58 (11) L | AUC(0-inf) (clinical; iv, 8 mg, AUC(0-inf)): 234 ng·h/mL | AUC(0-t) (clinical; iv, 8 mg, AUC(0-last)): 228 ng·h/mL | clearance (clinical; iv, 8 mg, CL): 590 mL/min | CL renal (clinical; iv, 8 mg): 2.3 mL/min | clearance (clinical; iv, 8 mg, Systemic plasma clearance): ~600 mL/min | half-life (clinical; iv, 8 mg): 1.33 h | Vd (clinical; iv, 8 mg, Vss): 55.6 L | Vd (clinical; iv, 8 mg, Vz): 66.7 L | AUC(0-inf) (clinical; iv, AUC (0-inf)): 234 ng·h/mL | clearance (clinical; iv, CL): 590 mL/min | Cmax (clinical; iv, Cmax): 149 ng/mL | Vd (clinical; iv, Steady-state volume of distribution (Vss)): ~56 L | Tmax (clinical; iv, Tmax): 0.55 h | half-life (clinical; iv): 1.33 h | Vd (clinical; iv, Vss): 56 L | AUC (0-inf) ratio capsule:oral solution (clinical; po): 93% | AUC (0-last) ratio capsule:oral solution (clinical; po): 96% | AUC(0-inf) (clinical; po): 69 (49) ng · h/mL | Apparent oral clearance higher than systemic clearance (clinical; po): 4.5-5 fold | Cmax (clinical; po): 29 (18) ng/mL | Cmax ratio capsule:oral solution (clinical; po): 88% | Intersubject % CV (clinical; po): 47-73% | Tmax (clinical; po): 0.76 (0.40) h | T½ (clinical; po): 1.14 (0.27) h | bioavailability (clinical; po): 25% | AUC(0-inf) (clinical; po, 8 mg): 73.8 (69) ng · h/mL | AUC(0-last) (clinical; po, 8 mg): 69.3 (73) ng · h/mL | CLr (clinical; po, 8 mg): 2.37 (95) mL/min | Cmax (clinical; po, 8 mg): 39.2 (67) ng/mL | Tmax (clinical; po, 8 mg): 0.83 (0.33, 1.25) h | T½ (clinical; po, 8 mg): 1.47 (21) h | Vz/F (clinical; po, 8 mg): 308 (79) L | AUC(0-inf) (clinical; po, 8 mg, AUC (0-inf)): 66 ng·h/mL | AUC(0-t) (clinical; po, 8 mg, AUC (0-last)): 62.1 ng·h/mL | CL renal (clinical; po, 8 mg): 2.92 mL/min | Cmax (clinical; po, 8 mg, Cmax): 31.4 ng/mL | Tmax (clinical; po, 8 mg, Tmax): 1 h | half-life (clinical; po, 8 mg): 1.28 h | Vd/F (clinical; po, 8 mg, Vz/F): 342 L | AUC(0-inf) (clinical; po, AUC (0-inf)): 74 ng·h/mL | Cmax (clinical; po, Cmax): 39 ng/mL | Tmax (clinical; po, Tmax): 0.76 h | half-life (clinical; po): 1.47 h | Transit Times, Colonic Segments Left (healthy subjects; 4 mg TID oral 14 days): 24.2 (12.9) hours | Transit Times, Colonic Segments Rectosigmold (healthy subjects; 4 mg TID oral 14 days): 15.8 (13.5) hours | Transit Times, Colonic Segments Right (healthy subjects; 4 mg TID oral 14 days): 9.4 (9.5) hours | Transit Times, Colon Total (healthy subjects; 4 mg TID oral 14 days): 49.4 (24.6)^a hours | Transit Times, Colonic Segments Left (healthy subjects; 8 mg TID oral 14 days): 25.8 (16.7) hours | Transit Times, Colonic Segments Rectosigmold (healthy subjects; 8 mg TID oral 14 days): 16.2 (11.9) hours | Transit Times, Colonic Segments Right (healthy subjects; 8 mg TID oral 14 days): 11.8 (13.9) hours | Transit Times, Colon Total (healthy subjects; 8 mg TID oral 14 days): 53.8 (28.5)^a hours | Transit Times, Colon Total [1]: 55.5 (41.3) hours | Transit Times, Colonic Segments Left [1]: 21.9 (16.0) hours | Transit Times, Colonic Segments Rectosigmoid [1]: 6.3 (8.3) hours | Transit Times, Colonic Segments Right [1]: 27.3 (29.2) hours | CL/F ([2]; 8 mg): 2698 (77) mL/min | % Dose (urine) ([2]; male): 0.21 (91) % | AUC (0-last) ratio fed/fasted ([2]; male): 108% | AUC(0-inf) ratio fed/fasted ([2]; male): 104% | Cmax ratio fed/fasted ([2]; male): 79% | AUC(0-inf) ([2]; male, 8 mg): 77.6 (66) ng · h/mL | AUC(0-last) ([2]; male, 8 mg): 72.8 (72) ng · h/mL | CLr ([2]; male, 8 mg): 3.86 (90) mL/min | Cmax ([2]; male, 8 mg): 31.7 (58) ng/mL | Cmax decrease with high-fat meal ([2]; male, 8 mg): 21% | Tmax ([2]; male, 8 mg): 1.00 (0.50, 2.00) h | T½ ([2]; male, 8 mg): 1.43 (40) h | Vz/F ([2]; male, 8 mg): 309 (76) L | In vivo chiral inversion to KC9945: no in vivo chiral inversion
